One assay addresses S. schleiferi DXR enzyme (Staphylococcus schleiferi, UniProt A0ABF7SXB4). The assay is described as follows: S. schleiferi DXR enzyme activity and inhibition (NADPH oxidation at 340 nm). Type of assay: biochemical. As to the method:
. The sequence was confirmed by Sanger sequencing and the plasmid was transformed into E. coli BL21(DE3) pLysS (Life Technologies). Gene expression was induced for 2 h with 1 mM isopropyl-β-D-thiogalactoside (IPTG) and cells were harvested by centrifugation at 4274 x g for 10 min at 4°C. The cell pellet was lysed by sonication in lysis buffer containing 25 mM Tris HCl (pH 7.5), 100 mM NaCl, 20 mM imidazole, 10% glycerol, 1 mM MgCl2, 1 mM dithiothreitol (DTT), 1 mg/mL lysozyme, 75 U benzonase and 1 Complete Mini EDTA-free protease inhibitor tablet (Roche Applied Science). The hexahistidine-tagged DXR protein was affinity purified from soluble lysate via nickel agarose beads (Gold Biotechnology). Bound protein was eluted in 300 mM imidazole, 25 mM Tris HCl (pH 7.5), 1 mM MgCl2 and 100 mM NaCl. Purified protein was dialyzed in buffer containing 10% glycerol without imidazole prior to analysis. The enzyme was frozen in liquid nitrogen and stored permanently at -80°C.
Oxidation of NADPH to NADP^+ as a result of substrate turnover was monitored at 340 nm in a POLARstar Omega microplate reader (BMG Labtech)[73]. […] Reactions were initiated by the addition of DOXP after 15 min incubation of the reaction mixture without DOXP at 37°C. Absorption at 340 nm was measured continuously for up to 45 min. For Km [DOXP] determination, DOXP concentrations between 0 and 2 mM were tested at 0.5 mM NADPH. The linear range of enzyme activity was determined by varying the DXR concentration at 1 mM DOXP and 1 mM NADPH. IC50 assays were performed using the standard reaction conditions with the respective amount of DXR inhibitor added to obtain the given final concentrations. Data points from at least three independent replicates were analyzed by nonlinear regression using GraphPad Prism software. Slopes of changing absorbance values were converted to (μM DOXP)(mg enzyme)^-1 s ^-1 using a NADPH standard curve (data not shown). For the determination of the inhibitory constant Ki [FSM] of DXR, enzyme activity over a range of DOXP substrate concentrations between 0 and 2 mM was measured for FSM between 0 mM to 4 mM. Data points from at least three independent replicates were analyzed as described above.

The test system of assay [1] is S. schleiferi. Nature of the assay: Minimum bactericidal (MBC) assay, CFU after 24 h. Particulars: 1 x and 10 x IC50, 24 h, CFU/mL.
Experimental: (§1) Overnight cultures were diluted 1:200 in LB media and grown at 37°C until reaching mid-logarithmic phase of growth. […] Cultures were serially diluted in 1 X Dulbecco’s Phosphate Buffered Saline (PBS; Gibco) and plated on LB agar. Colonies were enumerated after overnight growth at 37°C. Values reflect the mean and standard deviations of at least three independent experiments.
(§2) Growth in CFU/mL of S. schleiferi and S. pseudintermedius after 24 h treatment is plotted against the respective treatment. Cultures were treated at 1 x IC50 concentration and/or 10x IC50 concentration of the inhibitors. Shown are the mean values + SD from at least three independent experiments.
Assay [2] has as its system S. pseudintermedius. Nature of the assay: Minimum bactericidal (MBC) assay, CFU after 24 h. The following applies: 1 x and 10 x IC50, 24 h, CFU/mL.
Experimental: as §1, §2
Assay [3] concerns S. schleiferi. Nature of the assay: Growth inhibition assay of Staphylococcus species (OD600, 20 h). The following applies: read-out: S. schleiferi IC50.
Experimental: (§3) Overnight cultures were diluted 1:200 in LB media and grown at 37°C until the mid-logarithmic phase (OD600 = 0.5–0.8). Cultures were diluted in a 96-well plate to 1 x 10^5 in 150 μL LB media and treated with inhibitors at concentrations ranging from 2 nM to 100 μM. Bacteria were grown at 37°C for 20 h with cyclic shaking at 700 rpm in a FLUOstar Omega microplate reader (BMG Labtech). Growth was assessed over 20 h by measuring the OD600 at 20 min increments. The half-maximal inhibitory concentration (IC50) values were determined during logarithmic growth using GraphPad Prism software. All experiments were performed at least in triplicate and data reported represent the mean ± SEM.
Assay [4] has as its system S. pseudintermedius. The assay is described as above. The following applies: read-out: S. pseudintermedius IC50.
Experimental: as §3
The subject of another assay is S. aureus. The assay is described as above. Particulars: for IC50: Staphylococcus aureus, read-out: S. aureus IC50.
Another assay concerns HepG2 cells. Also noted: method as in PMID 28827774, PMID 30192536. The following applies: previous work ref [42], [53]; read-out: IC50 against HepG2 cells; cited from earlier work.
Assay [5] relates to S. schleiferi. The assay is described as follows: MIC by microtiter broth dilution, wild-type and FSM-resistant strains. The following applies: strains 3408, 4494, 7376, 8400. A general note: Dilution methods test growth across graded concentrations, often in twofold steps.
Experimental: Minimum Inhibitory Concentration (MIC) assays were conducted by microtiter broth dilution in clear 96-well plates[78]. MEPicides were serially diluted in duplicate at concentrations ranging from 1.5 mM– 19.5 nM in 75 μL of LB broth. Bacteria cultured without drug were used as a positive control for growth. The plates were inoculated with 75 μL bacteria diluted to 1 x 10^5 CFU/mL in LB. Plates were incubated for 18–20 h while shaking at 200 RPM at 37°C. The plates were then visually inspected, and the MIC value was defined as the lowest concentration of MEPicide that prevented visual growth.

Like-named read-outs stand apart in the source and are kept apart here.

Chain of S. schleiferi DXR enzyme (A0ABF7SXB4 entry or part of it): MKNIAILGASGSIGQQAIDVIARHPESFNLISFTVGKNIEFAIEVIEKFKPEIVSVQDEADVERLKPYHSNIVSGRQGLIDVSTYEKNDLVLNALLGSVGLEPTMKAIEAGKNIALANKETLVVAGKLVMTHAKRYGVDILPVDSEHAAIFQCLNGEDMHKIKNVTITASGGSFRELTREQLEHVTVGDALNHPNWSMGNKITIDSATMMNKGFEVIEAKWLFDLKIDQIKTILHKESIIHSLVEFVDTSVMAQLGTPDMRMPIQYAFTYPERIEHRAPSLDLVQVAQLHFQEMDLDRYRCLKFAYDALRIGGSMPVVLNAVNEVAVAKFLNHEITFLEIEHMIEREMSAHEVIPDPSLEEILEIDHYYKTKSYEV
Experimental for S. aureus: as §3

With `CC(=O)N(O)CCCP(=O)(O)O` [FR-900098], the IC50 (commonly the concentration that inhibits the measured activity by half) on S. schleiferi DXR enzyme is 1 ± 0.18 µM; in the assay on S. schleiferi [3] it was 41.1 ± 6.65 µM; in the assay on S. pseudintermedius [4], 34.1 ± 6.54 µM; in the assay on S. aureus it was more than 100 µM. Also, the “mechanism-of-action on viable cells” value with S. schleiferi [1] and in the assay with S. pseudintermedius [2] was “bacteriostatic” in each case. The “inhibition of S. aureus growth” value in the assay with S. aureus is “neither FSM nor FR-900098 inhibit S. aureus growth”.

On to `CC(C)(C)C(=O)OCOP(=O)(/C=C/CN(O)C=O)OCOC(=O)C(C)(C)C` [Compound 4], for which the “inhibition of purified recombinant S. schleiferi DXR in vitro” value on S. schleiferi DXR enzyme (prodrug, uncleaved) is recorded as “poorly inhibit”. Moreover, the concentration for half-maximal inhibition (IC50) at S. schleiferi DXR enzyme (purified recombinant enzyme, mean ± SEM, read-out: S. schleiferi DXR enzyme IC50) was 12.6 ± 1.98 µM; with HepG2 cells, more than 50 µM; in the assay on S. schleiferi [3], 0.03 µM; with S. pseudintermedius [4] it was 0.21 ± 0.04 µM; with S. aureus it was more than 90 µM. For the same molecule, in the assay with S. schleiferi [5], the “sensitivity of FSM^R glpT mutant S. schleiferi strains (MIC fold change vs WT)” value is reported as “remain sensitive”.

Regarding `CC(=O)N(O)C/C=C/P(=O)(O)O` [Compound 1], the IC50 was 3.31 ± 1.02 µM on S. schleiferi DXR enzyme, 55.5 ± 2.41 µM in the assay on S. schleiferi [3], 54.5 ± 1.14 µM in the assay on S. pseudintermedius [4] and more than 100 µM in the assay with S. aureus.

The values are drawn from paper PMC7297381, “Potent, specific MEPicides for treatment of zoonotic staphylococci” (PLoS Pathogens, 2020).
